Measurements taken from patent publication US6504052B1, “Excitatory amino acid receptor modulators” (Eli Lilly and Company, priority 1999, dated 2003).
pKi: −log10 of the molar value.

Biological target: T1, mGluR2 (Homo sapiens, UniProt Q14416)
T1 construct: expressed in transfected cells
Experiment: [3H]LY341495 binding displacement at mGluR2
Details: radioligand [3H]LY341495, cells expressing human mGluR subtypes, read-out: Ki for reversal of [3 H] LY341495 binding
From the text: (D. D. Schoepp, et al., Neuropharmacol., 1996, 35, 1661-1672 and 1997, 36, 111).
(LY341495 is described in Ornstein et al., J. Med. Chem., 1998, 41, 346-357 and J. Med. Chem., 1998, 41, 358 to 378).

T1 sequence (Q14416 19-872): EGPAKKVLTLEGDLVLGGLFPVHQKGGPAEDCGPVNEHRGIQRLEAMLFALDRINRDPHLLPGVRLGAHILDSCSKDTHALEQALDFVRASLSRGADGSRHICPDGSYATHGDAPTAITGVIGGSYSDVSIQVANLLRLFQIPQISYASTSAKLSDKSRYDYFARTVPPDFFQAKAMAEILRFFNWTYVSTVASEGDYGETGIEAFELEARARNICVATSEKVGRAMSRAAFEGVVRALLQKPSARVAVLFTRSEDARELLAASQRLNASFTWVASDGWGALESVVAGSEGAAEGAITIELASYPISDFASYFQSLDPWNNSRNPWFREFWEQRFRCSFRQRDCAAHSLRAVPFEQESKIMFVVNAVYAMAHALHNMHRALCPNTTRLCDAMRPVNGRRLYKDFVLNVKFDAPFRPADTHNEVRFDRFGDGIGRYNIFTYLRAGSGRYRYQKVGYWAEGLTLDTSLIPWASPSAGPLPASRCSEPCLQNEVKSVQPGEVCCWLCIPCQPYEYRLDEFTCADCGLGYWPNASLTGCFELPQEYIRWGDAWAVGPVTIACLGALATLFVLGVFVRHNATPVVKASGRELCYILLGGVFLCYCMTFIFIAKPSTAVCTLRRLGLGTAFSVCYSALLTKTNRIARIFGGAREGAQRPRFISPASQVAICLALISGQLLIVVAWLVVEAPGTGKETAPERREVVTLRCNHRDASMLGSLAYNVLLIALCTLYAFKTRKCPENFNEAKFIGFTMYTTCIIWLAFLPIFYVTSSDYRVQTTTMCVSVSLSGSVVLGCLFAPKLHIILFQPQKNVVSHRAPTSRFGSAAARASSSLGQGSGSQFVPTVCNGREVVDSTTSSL

Compound	pKi
C[C@@H]1[C@H](C(=O)O)[C@H]1[C@H](N)C(=O)O [(2S,1′S,2′S,3′S)-2′-carboxy-3′methylcyclopropylglycine]	5.58
C[C@H]1[C@H](C(=O)O)[C@H]1[C@H](N)C(=O)O [Example 1, (2S,1′S,2′S,3′R)-2-(3′-Methyl-2′-carboxycyclopropyl)glycine]	7.00
